From PubChem BioAssay (NCI)
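Dose response: 5 concentrations. Exposure: 48 h. Format: 96-well plates. Endpoint: linear interpolation; highest concentration if not reached. Here, GI50 denotes the concentration required for 50% inhibition of growth. TGI: concentration producing complete growth inhibition.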

Assays:
Test in all cases: NCI tumour cell line growth inhibition, 48 h; in the data active = GI50 below about 0.43 µM; inactive = the rest
[1] = test system: U251 CNS
[2] = test system: DU-145 prostate
[3] = test system: HS 578T breast
[4] = test system: SR leukemia
[5] = test system: SN12C renal
[6] = test system: LOX IMVI melanoma
[7] = test system: OVCAR-8 ovarian
[8] = test system: SK-MEL-28 melanoma
[9] = test system: A498 renal
[10] = test system: SNB-19 CNS
[11] = test system: ACHN renal
[12] = test system: 786-0 renal
[13] = test system: NCI-H23 lung
[14] = test system: HOP-92 NSCLC
[15] = test system: TK-10 renal
[16] = test system: HCT-116 colon
[17] = test system: SNB-75 CNS
[18] = test system: BT-549 breast
[19] = test system: HOP-62 NSCLC
[20] = test system: HL-60(TB) leukemia
[21] = test system: RPMI-8226 leukemia
[22] = test system: EKVX NSCLC
[23] = test system: MOLT-4 leukemia
[24] = test system: NCI/ADR-RES ovarian
[25] = test system: PC-3 prostate
[26] = test system: OVCAR-3 ovarian
[27] = test system: UACC-257 melanoma
[28] = test system: CAKI-1 renal
[29] = test system: HCT-15 colon
[30] = test system: MDA-MB-435
[31] = test system: SF-295 CNS
[32] = test system: MALME-3M melanoma
[33] = test system: NCI-H460 lung
[34] = test system: NCI-H522 lung
[35] = test system: UO-31 renal
[36] = test system: CCRF-CEM leukemia
[37] = test system: HCC-2998 colon
[38] = test system: IGROV1 ovarian
[39] = test system: KM12 colon
[40] = test system: A549 NSCLC
[41] = test system: M14 melanoma
[42] = test system: SW-620 colon
[43] = test system: COLO 205 colon
[44] = test system: SK-MEL-2 melanoma
[45] = test system: OVCAR-5 ovarian
[46] = test system: T-47D breast
[47] = test system: HT29 colon
[48] = test system: SK-MEL-5 melanoma
[49] = test system: MDA-MB-231 breast
[50] = test system: K-562 leukemia
[51] = test system: SF-268 CNS
[52] = test system: SK-OV-3 ovarian
[53] = test system: NCI-H226 lung
[54] = test system: MCF7 breast
[55] = test system: UACC-62 melanoma
[56] = test system: OVCAR-4 ovarian
[57] = test system: SF-539 CNS

O=C(CCCCCCNC(=O)C(O)(O)C(F)(F)F)Nc1nc2ccccc2s1
22.8 µM: TGI [46]
14.7 µM: TGI [34]
> 29.8 µM: TGI [2] | TGI [3] | TGI [4] | TGI [5] | TGI [7] | TGI [8] | TGI [10] | TGI [12] | TGI [15] | TGI [16] | TGI [17] | TGI [18] | TGI [19] | TGI [20] | TGI [21] | TGI [22] | TGI [23] | TGI [25] | TGI [27] | TGI [28] | TGI [33] | TGI [36] | TGI [39] | TGI [40] | TGI [41] | TGI [47] | TGI [50] | TGI [51] | TGI [53] | TGI [54] | TGI [56] | TGI [57]
8.39 µM: TGI [26]
8.13 µM: TGI [48]
inactive: GI50 [1] 4.32 µM | GI50 [2] 4.99 µM | GI50 [3] 3.57 µM | GI50 [4] 1.23 µM | GI50 [5] 6.39 µM | GI50 [6] 3.41 µM | GI50 [7] 2.86 µM | GI50 [8] 3.76 µM | GI50 [9] 1.51 µM | GI50 [10] 6.49 µM | GI50 [11] 3.59 µM | GI50 [12] 6.4 µM | GI50 [13] 4.94 µM | GI50 [14] 0.751 µM | GI50 [15] 1.17 µM | GI50 [16] 1.23 µM | GI50 [17] 1.67 µM | GI50 [18] 7.06 µM | GI50 [19] 4.29 µM | GI50 [20] 1.85 µM | GI50 [21] 2.73 µM | GI50 [22] 6.39 µM | GI50 [23] 1.21 µM | GI50 [24] 3.4 µM | GI50 [25] 5.01 µM | GI50 [26] 3.17 µM | GI50 [27] 6.56 µM | GI50 [28] 6.99 µM | GI50 [29] 5.8 µM | GI50 [30] 4.36 µM | GI50 [31] 3.43 µM | GI50 [32] 1.49 µM | GI50 [33] 2.98 µM | GI50 [34] 2.76 µM | GI50 [35] 2.01 µM | GI50 [36] 2.01 µM | GI50 [37] 5.75 µM | GI50 [38] 4.87 µM | GI50 [39] 5.84 µM | GI50 [40] 7.99 µM | GI50 [41] 6.4 µM | GI50 [42] 2.08 µM | GI50 [43] 3.17 µM | GI50 [44] 4.43 µM | GI50 [45] 2.33 µM | GI50 [46] 2.24 µM | GI50 [47] 3.75 µM | GI50 [48] 4.08 µM | GI50 [49] 3.59 µM | GI50 [50] 1.7 µM | GI50 [51] 7.69 µM | GI50 [52] 2.27 µM | GI50 [53] 9.61 µM | GI50 [54] 6.59 µM | GI50 [55] 1.61 µM | GI50 [56] 11 µM | GI50 [57] 6.56 µM
6.76 µM: TGI [55]
16.7 µM: TGI [24]
12.6 µM: TGI [52]
25.9 µM: TGI [13]
16.4 µM: TGI [38]
11 µM: TGI [42]
9.45 µM: TGI [43]
22.1 µM: TGI [49]
15 µM: TGI [45]
16.8 µM: TGI [37]
21 µM: TGI [44]
7.75 µM: TGI [6]
19.1 µM: TGI [29]
23.5 µM: TGI [30]
13 µM: TGI [32]
25.5 µM: TGI [1]
17.3 µM: TGI [11]
8.88 µM: TGI [31]
8.28 µM: TGI [14]
15.9 µM: TGI [35]
12.5 µM: TGI [9]
